This test relates to hepatocytes. The test can be described thus: RNA-seq of hepatocytes treated with Phase III failure compounds. The conditions noted are these: for significant modulation of expression of disease genes: q≤0.05, genes in the value or listed in the block; for B2M expression, RNA-seq result: gene B2M; for B9D2 expression, RNA-seq result: gene B9D2; for BAAT expression, RNA-seq result: gene BAAT; for BBOX1 expression, RNA-seq result: gene BBOX1; for BBS10 expression, RNA-seq result: gene BBS10; for BCHE expression, RNA-seq result: gene BCHE; for BCKDHB expression, RNA-seq result: gene BCKDHB; for BCKDK expression, RNA-seq result: gene BCKDK; for BCO1 expression, RNA-seq result: gene BCO1; for BCR expression, RNA-seq result: gene BCR; for BLNK expression, RNA-seq result: gene BLNK; for BLOC1S3 expression, RNA-seq result: gene BLOC1S3; for BMPR1A expression, RNA-seq result: gene BMPR1A; for BRAF expression, RNA-seq result: gene BRAF; for BSCL2 expression, RNA-seq result: gene BSCL2; for BTD expression, RNA-seq result: gene BTD; for C4A expression, RNA-seq result: gene C4A; for C9 expression, RNA-seq result: gene C9; for C10orf10 expression, RNA-seq result: gene C10orf10; for C10orf11 expression, RNA-seq result: gene C10orf11; for C15orf41 expression, RNA-seq result: gene C15orf41; for CA2 expression, RNA-seq result: gene CA2; for CA5A expression, RNA-seq result: gene CA5A; for CA12 expression, RNA-seq result: gene CA12; for CAV1 expression, RNA-seq result: gene CAV1; for CCND1 expression, RNA-seq result: gene CCND1; for CD46 expression, RNA-seq result: gene CD46; for CD81 expression, RNA-seq result: gene CD81; for CD320 expression, RNA-seq result: gene CD320; for CDAN1 expression, RNA-seq result: gene CDAN1; for CDH1 expression, RNA-seq result: gene CDH1; for CEP19 expression, RNA-seq result: gene CEP19; for CEP83 expression, RNA-seq result: gene CEP83; for CEP164 expression, RNA-seq result: gene CEP164; for CEP290 expression, RNA-seq result: gene CEP290; for CFB expression, RNA-seq result: gene CFB; for CFHR2 expression, RNA-seq result: gene CFHR2; for CHRM3 expression, RNA-seq result: gene CHRM3; for CIDEC expression, RNA-seq result: gene CIDEC; for CLDN1 expression, RNA-seq result: gene CLDN1; for COG1 expression, RNA-seq result: gene COG1; for significant modulation of expression of any of the genes analyzed: p≤0.05. The method, then:
RNA-seq was performed to determine the effects of the compounds on hepatocytes.
Significance was determined by the criteria of FPKM≥0.5, a log 2(fold-change)≥1, and a […].

Where two headings read alike, the source gives them in different places.

For the molecule `CN(C)[C@@H]1C(O)=C(C(N)=O)C(=O)[C@@]2(O)C(O)=C3C(=O)c4c(O)c(NC(=O)CN5CCCC5)cc(F)c4C[C@H]3C[C@@H]12` [TP-434 (Eravacycline), Eravacycline], the “Number (#) of genes having significantly changed expression” value was 232. Moreover, the “significant modulation of expression of disease genes” value (RNA-seq, hepatocytes) is given as “significantly (q≤0.05) modulate expression”. Besides, where the note is “hepatocytes”, the “B2M expression, RNA-seq result” value was determined as 0.56; the “B9D2 expression, RNA-seq result” value was 0.16; the “BAAT expression, RNA-seq result” value is given as −0.52; the “BBOX1 expression, RNA-seq result” value is −0.06. In addition, where the note is “hepatocytes”, the “BBS10 expression, RNA-seq result” value is given as 0.05; the “BCHE expression, RNA-seq result” value came to 0.12; the “BCKDHB expression, RNA-seq result” value stood at 0.04; the “BCKDK expression, RNA-seq result” value is given as −0.23. Further, for the setting “hepatocytes”, the “BCO1 expression, RNA-seq result” value is −0.13; the “BCR expression, RNA-seq result” value is recorded as −0.17; the “BLNK expression, RNA-seq result” value is −0.18; the “BLOC1S3 expression, RNA-seq result” value amounted to 0.32. Where the note is “hepatocytes”, the “BMPR1A expression, RNA-seq result” value is listed as −0.06; the “BRAF expression, RNA-seq result” value is 0.03; the “BSCL2 expression, RNA-seq result” value came to 1.5; the “BTD expression, RNA-seq result” value is −0.25. In addition, for the setting “hepatocytes”, the “C4A expression, RNA-seq result” value is recorded as −0.38; the “C9 expression, RNA-seq result” value is on record as 0.21; the “C10orf10 expression, RNA-seq result” value is on record as −0.02; the “C10orf11 expression, RNA-seq result” value came out at 0.56. Further, under “hepatocytes”, the “C15orf41 expression, RNA-seq result” value is reported as 0.12; the “CA2 expression, RNA-seq result” value was determined as 0.71; the “CA5A expression, RNA-seq result” value is recorded as 0.32; the “CA12 expression, RNA-seq result” value is given as 0.2. For the setting “hepatocytes”, the “CAV1 expression, RNA-seq result” value came to 0.34; the “CCND1 expression, RNA-seq result” value was −0.7; the “CD46 expression, RNA-seq result” value was found to be 0.23; the “CD81 expression, RNA-seq result” value was determined as 0.17. For the same molecule, where the note is “hepatocytes”, the “CD320 expression, RNA-seq result” value stood at 0.3; the “CDAN1 expression, RNA-seq result” value was −0.27; the “CDH1 expression, RNA-seq result” value is −0.59; the “CEP19 expression, RNA-seq result” value came to 0.1. For the same molecule, where the note is “hepatocytes”, the “CEP83 expression, RNA-seq result” value is reported as −0.15; the “CEP164 expression, RNA-seq result” value is listed as −0.21; the “CEP290 expression, RNA-seq result” value is listed as 0.55; the “CFB expression, RNA-seq result” value is on record as 0.23. For the same molecule, under “hepatocytes”, the “CFHR2 expression, RNA-seq result” value is given as 0.4; the “CHRM3 expression, RNA-seq result” value is −0.27; the “CIDEC expression, RNA-seq result” value is on record as −0.79; the “CLDN1 expression, RNA-seq result” value is 0.09. Besides, the “COG1 expression, RNA-seq result” value (hepatocytes) is reported as −0.37.
Regarding `Cc1ccc2c(=O)c3cccc(CC(=O)O)c3oc2c1C` [DMXAA], the “significant changes in gene expression” value (RNA-seq of Table 36, FPKM≥0.5, log 2(fold-change)≥1, q-value≤0.05) is listed as “not observed to cause any significant changes in gene expression”. Moreover, for the setting “RNA-seq, hepatocytes”, the “significant modulation of expression of any of the genes analyzed” value is “not observed to significantly modulate expression” and the “effect on disease gene expression” value is “no effect on any disease gene”.
In the case of `C1=C/COCc2cc(ccc2OCCN2CCCC2)Nc2nccc(n2)-c2cccc(c2)COC/1` [Pacritinib (SB1518), Pacritinib], under “RNA-seq, hepatocytes”, the “significant modulation of expression of disease genes” value is “significantly (q≤0.05) modulate expression”.
Take `C=CCNC1=C2C[C@@H](C)C[C@H](OC)[C@H](O)[C@@H](C)/C=C(\C)[C@H](OC(N)=O)[C@@H](OC)/C=C\C=C(/C)C(=O)NC(=CC1=O)C2=O` [Compound 17-AAG]: the “Number (#) of genes having significantly changed expression” value stood at 1558.
For the molecule `COCCOc1ccc(N2CCN(CCn3ncc4c3nc(N)n3nc(-c5ccco5)nc43)CC2)cc1` [Preladenant], the “Number (#) of genes having significantly changed expression” value (RNA-seq, Phase III failure compounds, hepatocytes, significance: FPKM≥0.5, log 2(fold-change)≥1, q-value≥0.05 (so in the source)) is given as 317. Also, the “significant modulation of expression of disease genes” value (RNA-seq, hepatocytes) is “significantly (q≤0.05) modulate expression”. Besides, for the setting “hepatocytes”, the “B2M expression, RNA-seq result” value came to 0.09; the “B9D2 expression, RNA-seq result” value is listed as −0.56; the “BAAT expression, RNA-seq result” value is −0.58; the “BBOX1 expression, RNA-seq result” value is given as −0.56. For the setting “hepatocytes”, the “BBS10 expression, RNA-seq result” value is listed as −0.21; the “BCHE expression, RNA-seq result” value was −0.63; the “BCKDHB expression, RNA-seq result” value is reported as −0.78; the “BCKDK expression, RNA-seq result” value is given as −0.48. In addition, where the note is “hepatocytes”, the “BCO1 expression, RNA-seq result” value was −1.07; the “BCR expression, RNA-seq result” value is listed as −0.62; the “BLNK expression, RNA-seq result” value is recorded as 0.53; the “BLOC1S3 expression, RNA-seq result” value was 0.3. Under “hepatocytes”, the “BMPR1A expression, RNA-seq result” value turned out to be 0.11; the “BRAF expression, RNA-seq result” value is reported as 0.46; the “BSCL2 expression, RNA-seq result” value was −0.26; the “BTD expression, RNA-seq result” value was −0.16. Besides, where the note is “hepatocytes”, the “C4A expression, RNA-seq result” value worked out at 0.16; the “C9 expression, RNA-seq result” value is recorded as −0.38; the “C10orf10 expression, RNA-seq result” value was found to be 0.14; the “C10orf11 expression, RNA-seq result” value was −0.32. In addition, for the setting “hepatocytes”, the “C15orf41 expression, RNA-seq result” value is reported as −0.17; the “CA2 expression, RNA-seq result” value is listed as 0.76; the “CA5A expression, RNA-seq result” value is recorded as −0.56; the “CA12 expression, RNA-seq result” value turned out to be 0.43. Where the note is “hepatocytes”, the “CAV1 expression, RNA-seq result” value is reported as −0.02; the “CCND1 expression, RNA-seq result” value is listed as −0.89; the “CD46 expression, RNA-seq result” value amounted to 0.34; the “CD81 expression, RNA-seq result” value is −0.26. In addition, for the setting “hepatocytes”, the “CD320 expression, RNA-seq result” value is −0.95; the “CDAN1 expression, RNA-seq result” value is reported as −0.32; the “CDH1 expression, RNA-seq result” value is −0.29; the “CEP19 expression, RNA-seq result” value is recorded as −0.54. Besides, for the setting “hepatocytes”, the “CEP83 expression, RNA-seq result” value worked out at 0.05; the “CEP164 expression, RNA-seq result” value is on record as −0.48; the “CEP290 expression, RNA-seq result” value stood at 0.41; the “CFB expression, RNA-seq result” value is 0.26. Also, where the note is “hepatocytes”, the “CFHR2 expression, RNA-seq result” value was −0.22; the “CHRM3 expression, RNA-seq result” value amounted to 0.06; the “CIDEC expression, RNA-seq result” value is listed as −1.38; the “CLDN1 expression, RNA-seq result” value was −0.26. In addition, the “COG1 expression, RNA-seq result” value (hepatocytes) was −0.08.
`CCCCC(C(=O)c1ccccc1)N1CCCC1` (stereo not drawn) [a-PHP]: the “significant changes in gene expression” value is on record as “not observed to cause any significant changes in gene expression”. Further, the “significant modulation of expression of any of the genes analyzed” value (RNA-seq, hepatocytes) is “not observed to significantly modulate expression”.

The record behind these values is patent US20210254056A1, “IDENTIFICATION AND TARGETED MODULATION OF GENE SIGNALING NETWORKS” (CAMP4 THERAPEUTICS CORPORATION, priority 2017, published 2021).
